# Results reported in US6753010B2, “Soft gelatin capsule containing angelica oil” (Shandong Luye Phamaceutical Co., Ltd., priority 2000, dated 2004).
# Assay: Influence of temperature on ligustilide content in angelica essential oil (gas chromatography, internal standard diethyl phthalate)
# Assay type: physicochemical
# Details: for Content of ligustilide: in angelica essential oil, sealed vial
# Description: Gas chromatograph (Shimadzu GC-14B); Diethyl phthalate (Shanghai First Reagents Factory, purity is 99.7% tested by gas chromatography with area normalization method); angelica essential oil (991007).
# Test group: Five portions of angelica essential oil (30 μl each) are placed separately in five 7 ml-sealing vials numbered with 0, 1, 2, 3 and 4, weighed accurately and sealed. The vials are laid in an oven (100° C.) and the samples are taken out of the oven after 0, 1, 2, 3 and 4 hours respectively. Anabout 16 μl of diethyl phthalate as the internal standard is added. Then the samples are weighed accurately and diluted with ca. 1 ml of ethyl alcohol additionally. According to the method in the item of ? Purity Test ? under “Protocol and Remarks of the Quality standard for Angelica essential oil” the content of ligustilide is determined.
# Control group: Five portions of angelica essential oil (30 μl each) are placed separately in five 7 ml-sealing vials numbered with 0′, 1′, 2′, 3′ and 4′, weighed accurately and sealed. The vials are laid aside under room temperature of 20° C. and about 16 μl of diethyl phthalate as internal standard is added after 0, 1, 2, 3 and 4 hours respectively. […] with ca. 1 ml of ethyl alcohol additionally. According to the method in the item of ? Purity Test ? under “Protocol and Remarks of the Quality standard for Angelica essential oil”, the content of ligustilide is determined.
smiles,measurement,setting,value
CCC/C=C1\OC(=O)C2=C1CCC=C2 [ligustilide],Stability of ligustilide content (in words),in angelica essential oil under room temperature (20° C.),relatively stable
same,Stability of ligustilide content (in words),in angelica essential oil under temperature of 100° C.,decreases gradually
same,Content of ligustilide,"higher temperature (100° C.), 0 hour",55.50%
same,Content of ligustilide,"higher temperature (100° C.), 1 hour",41.89%
same,Content of ligustilide,"higher temperature (100° C.), 2 hours",32.74%
same,Content of ligustilide,"higher temperature (100° C.), 3 hours",21.89%
same,Content of ligustilide,"higher temperature (100° C.), 4 hours",12.00%
same,Content of ligustilide,"room temperature (20° C.), 0 hour",55.5%
same,Content of ligustilide,"room temperature (20° C.), 1 hour",56.01%
same,Content of ligustilide,"room temperature (20° C.), 2 hours",56.66%
same,Content of ligustilide,"room temperature (20° C.), 3 hours",55.78%
same,Content of ligustilide,"room temperature (20° C.), 4 hours",55.39%
